In assay [1] the target is Beta-2 adrenergic receptor (Homo sapiens, UniProt P07550). The experiment in a line: beta2AR agonists driving receptor internalization, dose response, cell-based, FAP fluorogen, flow cytometry, cherry pick 1 (AID 588763). Format: functional. A general note: A flow cytometer gives signals particle by particle.
The target of assay [2] is Polyadenylate-binding protein 1 (Homo sapiens, UniProt P11940). The experiment in a line: PABP poly(A) RNA binding inhibitors, primary screen, biochemical, fluorescence polarization, uHTS (AID 2014). On the technique in general: In fluorescence polarisation assays a small probe gives low polarisation when free and higher when bound to something large.
Assay [3] concerns the target T1, Dual specificity protein phosphatase 6 (Rattus norvegicus, UniProt Q64346).
T1 sequence (Q64346 whole entry): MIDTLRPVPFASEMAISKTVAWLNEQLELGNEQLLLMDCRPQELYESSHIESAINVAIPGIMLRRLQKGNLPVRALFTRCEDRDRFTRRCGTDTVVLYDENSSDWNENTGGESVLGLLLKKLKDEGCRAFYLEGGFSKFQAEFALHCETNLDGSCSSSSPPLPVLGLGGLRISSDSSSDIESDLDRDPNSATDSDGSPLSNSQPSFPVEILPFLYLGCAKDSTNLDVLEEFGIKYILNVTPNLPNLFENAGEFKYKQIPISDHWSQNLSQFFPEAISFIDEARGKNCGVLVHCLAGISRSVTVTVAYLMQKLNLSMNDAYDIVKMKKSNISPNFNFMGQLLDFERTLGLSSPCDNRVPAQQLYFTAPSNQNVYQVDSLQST
The experiment in a line: MKP-3 phosphatase inhibitors, primary screen, biochemical, rat enzyme, in vitro (AID 425).

Assay [4] addresses T2, Voltage-gated N-type calcium channel alpha-1B subunit/Amyloid beta A4 precursor protein-binding family A member 1 (Homo sapiens, UniProt Q00975+Q02410). It is filed as protein assay.
Assay [5] concerns the target T3, Dual specificity protein phosphatase 3 (Homo sapiens, UniProt P51452). As to the kind of experiment: VHR1 phosphatase inhibitors, biochemical (AID 1878).
Assay [6] addresses T4, Apoptotic protease-activating factor 1 (Homo sapiens, UniProt O14727).
T4 sequence (O14727 whole entry): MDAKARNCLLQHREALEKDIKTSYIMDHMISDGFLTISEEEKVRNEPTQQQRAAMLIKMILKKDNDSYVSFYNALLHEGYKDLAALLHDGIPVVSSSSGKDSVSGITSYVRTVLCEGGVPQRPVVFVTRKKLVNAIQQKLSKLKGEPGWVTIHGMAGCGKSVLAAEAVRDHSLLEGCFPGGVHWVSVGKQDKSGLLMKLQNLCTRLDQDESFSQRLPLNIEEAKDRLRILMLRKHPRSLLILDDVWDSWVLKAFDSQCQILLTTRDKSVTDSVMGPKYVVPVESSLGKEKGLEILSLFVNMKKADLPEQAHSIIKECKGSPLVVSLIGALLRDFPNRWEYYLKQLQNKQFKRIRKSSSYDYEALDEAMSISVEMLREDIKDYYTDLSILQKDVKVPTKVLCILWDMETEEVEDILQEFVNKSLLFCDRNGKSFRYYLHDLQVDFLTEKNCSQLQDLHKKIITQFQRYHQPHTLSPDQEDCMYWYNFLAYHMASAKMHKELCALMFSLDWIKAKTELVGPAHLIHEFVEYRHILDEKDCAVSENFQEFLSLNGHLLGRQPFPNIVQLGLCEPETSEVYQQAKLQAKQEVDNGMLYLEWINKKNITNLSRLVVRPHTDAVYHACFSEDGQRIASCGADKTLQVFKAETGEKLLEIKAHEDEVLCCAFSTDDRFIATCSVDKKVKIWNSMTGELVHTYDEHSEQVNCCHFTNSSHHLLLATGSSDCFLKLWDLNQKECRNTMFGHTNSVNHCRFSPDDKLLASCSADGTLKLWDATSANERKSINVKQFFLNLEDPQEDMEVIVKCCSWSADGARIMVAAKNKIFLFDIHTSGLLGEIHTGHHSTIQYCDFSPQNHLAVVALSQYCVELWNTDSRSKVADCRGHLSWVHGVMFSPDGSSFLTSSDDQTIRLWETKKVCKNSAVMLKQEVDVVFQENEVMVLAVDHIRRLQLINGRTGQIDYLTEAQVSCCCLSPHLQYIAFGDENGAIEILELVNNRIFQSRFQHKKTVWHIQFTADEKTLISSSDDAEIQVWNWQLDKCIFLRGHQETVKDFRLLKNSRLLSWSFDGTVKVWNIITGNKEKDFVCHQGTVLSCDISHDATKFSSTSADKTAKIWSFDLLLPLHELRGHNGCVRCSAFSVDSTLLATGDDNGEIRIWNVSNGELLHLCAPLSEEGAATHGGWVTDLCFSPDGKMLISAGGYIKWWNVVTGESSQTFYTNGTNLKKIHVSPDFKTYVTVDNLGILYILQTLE
As to the kind of experiment: activation of Apaf-1 mediated apoptosis – fluorescent, uHTS hits, dose response (AID 588554). Format: functional.

A further assay has as its target Beta-galactosidase (Escherichia coli, UniProt Q8VNN2). As to the kind of experiment: PubChem AID 485352. Format: functional.
For assay [7], the target named is T3, Dual specificity protein phosphatase 3. The experiment in a line: VHR1 phosphatase inhibitors, primary screen, biochemical, absorbance, uHTS (AID 1654).
For assay [8], the target named is Eukaryotic translation initiation factor 4H (Homo sapiens, UniProt Q15056). As to the kind of experiment: human eIF4H binding inhibitors, primary screen, translation initiation inhibitor project, biochemical, uHTS, fluorescence polarization (AID 2012).
Assay [9] deals with T5, Type-1 angiotensin II receptor (Homo sapiens, UniProt P30556).
T5 sequence (P30556 whole entry): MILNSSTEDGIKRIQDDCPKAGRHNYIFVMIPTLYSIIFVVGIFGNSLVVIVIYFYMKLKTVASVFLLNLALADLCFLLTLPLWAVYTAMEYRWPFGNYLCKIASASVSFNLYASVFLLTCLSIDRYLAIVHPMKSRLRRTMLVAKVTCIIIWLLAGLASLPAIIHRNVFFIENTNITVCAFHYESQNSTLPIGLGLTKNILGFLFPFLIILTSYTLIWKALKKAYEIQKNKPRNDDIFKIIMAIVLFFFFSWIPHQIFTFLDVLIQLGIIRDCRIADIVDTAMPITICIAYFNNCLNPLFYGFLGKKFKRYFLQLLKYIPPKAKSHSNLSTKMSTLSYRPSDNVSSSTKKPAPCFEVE
As to the kind of experiment: AT1 receptor antagonists, dose response, selectivity assay for APJ receptor antagonist project, cell-based, uHTS hits (AID 463214).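 Further: antagonist potency against angiotensin II stimulated AT1 response.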 It is filed as functional.

Assay [10] concerns the target T2, Voltage-gated N-type calcium channel alpha-1B subunit/Amyloid beta A4 precursor protein-binding family A member 1. It is filed as protein assay. The source holds these as a separate data set.
For assay [11], the target named is Eukaryotic translation initiation factor 4E (Mus musculus, UniProt P63073). As to the kind of experiment: eIF4E–eIF4G protein interaction inhibitors, dose response, biochemical, TR-FRET (AID 855).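 Further: potency for disrupting eIF4E binding to eIF4GI seen as loss of FRET.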 It is filed as functional.
Another assay deals with T6, Hexokinase HKDC1 (Homo sapiens, UniProt Q2TB90).
T6 sequence (Q2TB90 whole entry): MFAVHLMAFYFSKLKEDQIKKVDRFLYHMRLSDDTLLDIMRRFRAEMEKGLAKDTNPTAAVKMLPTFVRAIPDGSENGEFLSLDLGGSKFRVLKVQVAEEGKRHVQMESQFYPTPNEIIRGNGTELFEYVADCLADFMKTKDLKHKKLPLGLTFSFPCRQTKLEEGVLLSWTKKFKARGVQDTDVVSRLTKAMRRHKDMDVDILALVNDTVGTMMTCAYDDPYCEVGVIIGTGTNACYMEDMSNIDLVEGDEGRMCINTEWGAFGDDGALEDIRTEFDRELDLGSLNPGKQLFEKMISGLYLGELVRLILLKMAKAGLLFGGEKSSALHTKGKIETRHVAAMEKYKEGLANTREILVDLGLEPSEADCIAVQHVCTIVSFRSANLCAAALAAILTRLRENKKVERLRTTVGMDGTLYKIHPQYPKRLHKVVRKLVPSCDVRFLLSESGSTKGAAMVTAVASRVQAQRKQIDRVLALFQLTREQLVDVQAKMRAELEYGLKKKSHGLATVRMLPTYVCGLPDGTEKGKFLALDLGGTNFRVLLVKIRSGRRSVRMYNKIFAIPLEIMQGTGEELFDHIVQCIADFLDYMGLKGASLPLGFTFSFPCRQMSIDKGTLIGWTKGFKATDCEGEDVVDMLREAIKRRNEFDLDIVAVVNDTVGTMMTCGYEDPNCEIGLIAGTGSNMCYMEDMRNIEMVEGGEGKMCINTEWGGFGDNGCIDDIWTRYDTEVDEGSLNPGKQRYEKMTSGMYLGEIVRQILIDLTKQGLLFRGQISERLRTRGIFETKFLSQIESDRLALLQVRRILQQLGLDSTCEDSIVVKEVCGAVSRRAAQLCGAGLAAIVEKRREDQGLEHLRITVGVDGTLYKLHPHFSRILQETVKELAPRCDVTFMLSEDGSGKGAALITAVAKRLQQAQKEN
The experiment in a line: SAR analysis of small molecule inhibitors of hexokinase domain containing I (HKDC1). [Related pubchem assays (depositor defined):AID493160, AID493190]. Format: functional.

The target in a further assay is Hexokinase-1 (Homo sapiens, UniProt P19367). The experiment in a line: SAR analysis of small molecule inhibitors of hexokinase domain containing I (HKDC1) in the hexokinase 1 selectivity assay. [Related pubchem assays (depositor defined):AID493160, AID493190]. Format: functional.
Assay [12] addresses G-protein coupled receptor 55 (Homo sapiens, UniProt Q9Y2T6). As to the kind of experiment: GPR55 agonists via beta-arrestin recruitment, primary screen, imaging, U2OS cells, beta-arrestin-GFP redistribution (AID 1961). Format: functional. Background: Arrestin recruitment assays detect the binding of arrestin to an activated receptor.
Assay [13] deals with Candida albicans. The experiment in a line: growth inhibition of resistant C. albicans, dose response, CaCi-8 strain, fluconazole, dry powder, set 4 (AID 488950). It is filed as functional, organism-based.
Assay [14] relates to Candida albicans. As to the kind of experiment: single-agent growth inhibition of C. albicans, dose response, counter-screen for antifungal drug resistance project, C. albicans CaCi-2, dry powder (AID 488802). Format: functional, organism-based.
The test system of assay [15] is Candida albicans. The experiment in a line: growth inhibition of resistant C. albicans, dose response, CaCi-8, fluconazole, Alamar Blue, dry powder (AID 488807). Format: functional, organism-based.
Assay [16] relates to Candida albicans. The experiment in a line: fluconazole resistance reversal in C. albicans, dose response, CaCi-2 strain, Alamar Blue, dry powder, set 4 (AID 488943). Format: functional, organism-based.
The subject of the next assay is Jurkat. The experiment in a line: SAR Analysis of small molecule inhibitors of […] specific antigen receptor-induced NF-kB activation in a Jurkat cell line using a luminescence assay - Set 3. [Related pubchem assays (depositor defined):AID435022, AID435025, AID465]. The settings on record: Homo sapiens. Format: functional, cell-based.
The subject of assay [17] is HEK293. The experiment in a line: cytotoxicity in HEK293T NF-kB-Luc cells, SAR follow-up, cytotoxicity control for NF-kB activator project, cell-based, resazurin fluorescence (AID 493251). Format: functional. The settings on record: Homo sapiens.
The test system of assay [18] is HEK293. The experiment in a line: SAR Analysis of small molecule inhibitors of B-cell specific antigen receptor-induced NF-kB activation in a HEK-293T cell line using a luminescence assay - Set 2. [Related pubchem assays (depositor defined):AID435022, AID435025, AID489021]. It is filed as functional, cell-based. The settings on record: Homo sapiens.

Activity calls are given as the source filed them.

T3 sequence (P51452 whole entry): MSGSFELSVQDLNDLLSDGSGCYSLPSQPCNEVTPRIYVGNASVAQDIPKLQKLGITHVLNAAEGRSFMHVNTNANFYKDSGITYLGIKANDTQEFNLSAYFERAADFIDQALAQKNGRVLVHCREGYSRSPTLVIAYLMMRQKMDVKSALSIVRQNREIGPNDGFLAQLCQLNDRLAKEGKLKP
T2 sequence (Q00975 whole entry): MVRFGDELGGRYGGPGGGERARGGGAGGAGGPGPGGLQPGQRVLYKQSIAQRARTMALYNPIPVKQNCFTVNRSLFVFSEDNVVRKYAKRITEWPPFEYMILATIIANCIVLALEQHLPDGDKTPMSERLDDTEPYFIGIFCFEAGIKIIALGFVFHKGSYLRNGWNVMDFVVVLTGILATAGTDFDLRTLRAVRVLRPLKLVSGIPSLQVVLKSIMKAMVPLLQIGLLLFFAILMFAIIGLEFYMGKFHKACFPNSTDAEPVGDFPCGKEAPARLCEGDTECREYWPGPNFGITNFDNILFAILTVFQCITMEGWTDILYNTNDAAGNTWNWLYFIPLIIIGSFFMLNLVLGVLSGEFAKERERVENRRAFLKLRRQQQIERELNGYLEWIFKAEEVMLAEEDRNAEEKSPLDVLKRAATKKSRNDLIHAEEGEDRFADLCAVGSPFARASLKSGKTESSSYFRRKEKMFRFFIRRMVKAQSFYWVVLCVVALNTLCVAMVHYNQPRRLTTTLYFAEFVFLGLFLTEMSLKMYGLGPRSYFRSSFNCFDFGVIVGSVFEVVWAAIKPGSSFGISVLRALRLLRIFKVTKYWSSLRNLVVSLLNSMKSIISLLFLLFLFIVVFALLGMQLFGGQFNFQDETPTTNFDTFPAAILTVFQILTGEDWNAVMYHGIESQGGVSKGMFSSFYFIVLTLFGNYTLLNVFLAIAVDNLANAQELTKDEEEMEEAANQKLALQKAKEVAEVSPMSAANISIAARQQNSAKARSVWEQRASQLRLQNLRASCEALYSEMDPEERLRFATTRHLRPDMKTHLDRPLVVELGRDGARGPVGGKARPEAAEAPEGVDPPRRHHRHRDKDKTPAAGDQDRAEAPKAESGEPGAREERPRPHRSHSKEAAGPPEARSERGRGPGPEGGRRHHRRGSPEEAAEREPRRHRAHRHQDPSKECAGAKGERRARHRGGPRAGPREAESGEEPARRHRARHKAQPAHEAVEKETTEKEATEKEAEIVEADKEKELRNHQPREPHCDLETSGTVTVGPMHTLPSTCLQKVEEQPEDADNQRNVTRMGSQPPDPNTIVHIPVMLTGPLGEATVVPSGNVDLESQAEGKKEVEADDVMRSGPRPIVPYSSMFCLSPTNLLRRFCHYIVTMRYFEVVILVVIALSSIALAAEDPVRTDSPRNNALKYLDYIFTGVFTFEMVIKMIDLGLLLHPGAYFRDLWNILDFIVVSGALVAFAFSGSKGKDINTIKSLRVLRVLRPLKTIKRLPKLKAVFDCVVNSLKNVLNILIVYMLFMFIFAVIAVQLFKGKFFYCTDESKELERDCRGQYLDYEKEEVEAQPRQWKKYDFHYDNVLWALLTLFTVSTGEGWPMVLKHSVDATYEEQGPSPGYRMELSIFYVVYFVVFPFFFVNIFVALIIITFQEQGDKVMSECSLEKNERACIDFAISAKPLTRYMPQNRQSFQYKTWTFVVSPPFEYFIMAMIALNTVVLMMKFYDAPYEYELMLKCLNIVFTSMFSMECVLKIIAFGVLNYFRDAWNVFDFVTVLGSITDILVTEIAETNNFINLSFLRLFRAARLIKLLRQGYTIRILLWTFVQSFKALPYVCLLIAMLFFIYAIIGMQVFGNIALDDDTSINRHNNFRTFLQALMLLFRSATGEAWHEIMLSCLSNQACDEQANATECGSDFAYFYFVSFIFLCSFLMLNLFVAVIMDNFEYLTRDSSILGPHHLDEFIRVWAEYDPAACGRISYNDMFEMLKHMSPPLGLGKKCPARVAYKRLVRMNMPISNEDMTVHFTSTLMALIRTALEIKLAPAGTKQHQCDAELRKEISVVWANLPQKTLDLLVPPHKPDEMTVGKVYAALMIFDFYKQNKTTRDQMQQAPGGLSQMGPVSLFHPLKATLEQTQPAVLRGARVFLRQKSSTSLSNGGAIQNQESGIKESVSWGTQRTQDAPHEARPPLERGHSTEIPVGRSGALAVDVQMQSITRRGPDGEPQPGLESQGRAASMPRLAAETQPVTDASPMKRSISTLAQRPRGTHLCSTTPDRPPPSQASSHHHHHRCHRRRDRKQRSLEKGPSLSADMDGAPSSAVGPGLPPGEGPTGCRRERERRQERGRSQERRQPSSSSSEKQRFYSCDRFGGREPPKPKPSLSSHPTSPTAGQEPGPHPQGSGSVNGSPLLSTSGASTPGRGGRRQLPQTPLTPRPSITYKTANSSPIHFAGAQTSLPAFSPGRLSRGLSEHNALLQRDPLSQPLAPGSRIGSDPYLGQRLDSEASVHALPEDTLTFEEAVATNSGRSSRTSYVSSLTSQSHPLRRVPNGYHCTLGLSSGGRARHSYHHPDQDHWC
T2 sequence (Q02410 whole entry): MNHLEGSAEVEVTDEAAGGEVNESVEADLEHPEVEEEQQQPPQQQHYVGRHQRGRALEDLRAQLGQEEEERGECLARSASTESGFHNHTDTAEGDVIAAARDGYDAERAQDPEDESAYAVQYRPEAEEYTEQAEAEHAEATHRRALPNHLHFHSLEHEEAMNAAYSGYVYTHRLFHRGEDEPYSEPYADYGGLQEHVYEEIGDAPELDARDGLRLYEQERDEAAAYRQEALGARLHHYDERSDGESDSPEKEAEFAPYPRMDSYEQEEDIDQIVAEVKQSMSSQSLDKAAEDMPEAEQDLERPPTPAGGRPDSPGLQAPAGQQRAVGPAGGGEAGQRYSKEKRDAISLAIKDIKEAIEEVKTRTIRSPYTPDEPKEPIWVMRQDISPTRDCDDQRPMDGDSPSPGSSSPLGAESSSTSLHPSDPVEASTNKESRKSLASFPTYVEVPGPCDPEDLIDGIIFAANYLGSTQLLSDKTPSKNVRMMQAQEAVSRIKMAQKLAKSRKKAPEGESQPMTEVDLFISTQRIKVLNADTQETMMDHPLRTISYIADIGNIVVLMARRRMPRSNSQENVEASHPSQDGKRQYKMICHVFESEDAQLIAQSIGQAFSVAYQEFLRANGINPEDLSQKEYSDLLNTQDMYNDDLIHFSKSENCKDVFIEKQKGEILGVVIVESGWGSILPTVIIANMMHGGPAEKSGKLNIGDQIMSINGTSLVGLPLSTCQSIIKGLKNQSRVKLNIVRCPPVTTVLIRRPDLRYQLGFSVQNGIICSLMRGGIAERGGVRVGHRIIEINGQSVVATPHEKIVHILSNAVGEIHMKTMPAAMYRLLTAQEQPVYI
Chain of Beta-2 adrenergic receptor (P07550 whole entry): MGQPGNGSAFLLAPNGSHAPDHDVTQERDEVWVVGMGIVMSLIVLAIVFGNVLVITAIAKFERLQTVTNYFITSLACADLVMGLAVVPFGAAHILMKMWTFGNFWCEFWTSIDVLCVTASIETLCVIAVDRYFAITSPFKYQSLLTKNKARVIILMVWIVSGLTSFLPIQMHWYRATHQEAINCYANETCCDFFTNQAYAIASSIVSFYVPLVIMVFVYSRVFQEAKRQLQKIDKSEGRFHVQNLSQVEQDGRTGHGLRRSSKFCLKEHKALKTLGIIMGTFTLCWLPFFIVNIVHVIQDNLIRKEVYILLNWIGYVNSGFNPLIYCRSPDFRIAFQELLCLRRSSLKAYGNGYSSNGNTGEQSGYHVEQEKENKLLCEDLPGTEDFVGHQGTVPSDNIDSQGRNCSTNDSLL
Chain of Hexokinase-1 (P19367 whole entry, the tested form may be a part): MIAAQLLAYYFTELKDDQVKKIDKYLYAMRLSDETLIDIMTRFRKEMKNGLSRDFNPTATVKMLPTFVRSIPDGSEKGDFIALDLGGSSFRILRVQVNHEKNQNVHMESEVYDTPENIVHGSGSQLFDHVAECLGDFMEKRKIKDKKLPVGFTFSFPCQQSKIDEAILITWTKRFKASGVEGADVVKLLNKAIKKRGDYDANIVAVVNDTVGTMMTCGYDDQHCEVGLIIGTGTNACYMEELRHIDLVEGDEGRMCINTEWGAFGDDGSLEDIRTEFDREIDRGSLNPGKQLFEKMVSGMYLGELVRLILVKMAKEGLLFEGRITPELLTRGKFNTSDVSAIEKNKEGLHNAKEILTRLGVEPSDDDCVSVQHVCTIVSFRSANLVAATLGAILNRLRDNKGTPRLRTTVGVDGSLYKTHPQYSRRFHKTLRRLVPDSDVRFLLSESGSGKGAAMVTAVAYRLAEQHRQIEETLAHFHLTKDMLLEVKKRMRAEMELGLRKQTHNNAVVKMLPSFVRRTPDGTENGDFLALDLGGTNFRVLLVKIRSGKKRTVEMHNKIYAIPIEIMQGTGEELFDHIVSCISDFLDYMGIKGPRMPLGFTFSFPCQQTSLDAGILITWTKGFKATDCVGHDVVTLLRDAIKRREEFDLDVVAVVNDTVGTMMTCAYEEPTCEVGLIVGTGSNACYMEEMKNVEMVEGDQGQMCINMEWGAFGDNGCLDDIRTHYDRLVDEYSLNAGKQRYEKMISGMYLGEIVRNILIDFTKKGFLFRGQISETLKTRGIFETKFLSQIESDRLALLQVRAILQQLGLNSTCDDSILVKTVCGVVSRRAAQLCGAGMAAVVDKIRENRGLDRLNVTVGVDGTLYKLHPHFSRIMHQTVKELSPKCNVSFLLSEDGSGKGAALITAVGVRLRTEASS

Take `CCCCN(C(=O)c1ccc(NC(=O)C(C)C)cc1)c1ccccc1`: the EC50 in [1] is 0.049 µM (active).

In the case of `COc1cc(/C=C2\SC(=O)N(c3cccc(Cl)c3)C2=O)cc([N+](=O)[O-])c1O`, the IC50 in [2] is > 100 µM (inactive); in assay [3], > 158 µM (not active); in [4], > 50 µM (inactive); in assay [5], 2.21 µM (active); in assay [7], 3.03 µM (active); in assay [8], 4.99 µM (active). Moreover, the IC50 is 27.3 µM (not active) in assay [9], 3.5 µM (active) in [10] and 21.9 µM (active) in assay [11]. Further, the values for the EC50 (in [6]; at Beta-galactosidase) were 5.8 µM (active) and 30.8 µM (active), respectively.

`Cc1ccc(S(=O)(=O)N2CCOCC2)cc1NC(=O)CSc1nnc2cc(C)c3ccccc3n12`: the figures for the IC50 at Hexokinase HKDC1 and at Hexokinase-1 were 43.2 µM (inactive) and 50.3 µM (inactive), respectively. In assay [12], the EC50 was 17.4 µM (inactive).

Regarding `Cc1ccc(C(=O)N2CCN(c3ccnc4cc(Cl)ccc34)CC2)cc1`, the AC50 in the assay on Candida albicans [13] was 1.33 µM (active); in the assay on Candida albicans [14] it was 31.8 µM (active); in the assay on Candida albicans [15] it was 7.07 µM (active); in the assay on Candida albicans [16] it was 1.78 µM (active).

As to `COc1ccccc1NC(=O)CCc1nc(-c2ccc(C(C)(C)C)cc2)no1`, the concentration for half-maximal inhibition (IC50) is 0.665 µM (active) in the assay with Jurkat, 56 µM (inactive) with HEK293 [17] and 0.44 µM (active) in the assay with HEK293 [18].

In general, EC50 refers to the concentration at which the effect is half-maximal. The IC50 is the concentration that gives 50% inhibition. A word on the AC50: it is the concentration at which the activity in the assay is half-maximal.

Values taken from ChEMBL document CHEMBL1201862, “PubChem BioAssay data set” (2004).
